Data: patent publication US10730875B2, “Substituted imidazo[1,2-A]pyridin-2-ylamine compounds, and pharmaceutical compositions and methods of use thereof” (JN Therapeutics, priority 2015, dated 2020)

Columns and labels:
Type in all cases: biochemical
[1] = molecular target: human Janus kinase 1 (JAK1), recombinant catalytic domain (Homo sapiens (Human), UniProt P23458); assay: LanthaScreen TR-FRET enzymatic assay, JAK1; settings: 1 mM ATP, GFP-STAT1 substrate, read-out: Inhibitory Activity IC50 JAK1
Chain of human Janus kinase 1 (JAK1), recombinant catalytic domain (P23458 866-1154): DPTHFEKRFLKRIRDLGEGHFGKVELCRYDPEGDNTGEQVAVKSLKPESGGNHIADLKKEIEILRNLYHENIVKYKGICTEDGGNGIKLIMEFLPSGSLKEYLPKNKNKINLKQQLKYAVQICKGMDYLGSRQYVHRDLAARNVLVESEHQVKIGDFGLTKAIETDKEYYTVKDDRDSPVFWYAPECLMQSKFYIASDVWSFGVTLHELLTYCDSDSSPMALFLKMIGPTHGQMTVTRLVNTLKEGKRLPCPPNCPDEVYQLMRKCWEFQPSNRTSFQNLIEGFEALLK
Procedure: (§1) The in vitro inhibition of recombinant human JAKs was determined as follow.
(§2) Compounds were tested in LANTHASCREEN™ time-resolved fluorescence energy transfer (TR-FRET) enzymatic assays from Invitrogen. The human Janus kinase 1 (JAK1) used in the assay is the recombinant JAK1 catalytic domain (amino acids 866-1154) expressed and purified from insect cells (Invitrogen, Cat. No. PV4774). The human Janus kinase 2 (JAK2) used in the assay is the recombinant JAK2 catalytic domain (amino acids 808-1132) expressed and purified from insect cells (Invitrogen, Cat. No. PV4210). The human Janus kinase 3 (JAK3) used in the assay is the recombinant JAK3 catalytic domain (amino acids 781-1124) expressed and purified from insect cells (Invitrogen, Cat. No. PV3855). The human tyrosine kinase 2 (TYK2) used in the assay is the recombinant TYK2 catalytic domain (amino acids 833-1187) expressed and purified from insect cells (Invitrogen, Cat. No. PV4790). The substrate is a recombinant STAT1 expressed as a fusion with GFP (Green Fluorescent Protein) to act as a physiological substrate (Invitrogen, Cat. No. PV5211).
(§3) Test compounds were prepared and diluted in DMSO in 3-fold serial dilutions for 10 doses to 100× of the final testing concentrations. The compounds were then further diluted to 4× by the kinase reaction buffer (Invitrogen, Cat. No. PV3189). The enzymatic reaction for compound testing was performed in a white 384-well polypropylene plate (Packard, Cat. No. 6005214) with a total reaction volume of 10 μL containing 440 ng/mL JAK1, 11 ng/mL JAK2, 400 ng/mL JAK3, or 200 ng/mL TYK2, 100 nM substrate, and 1 mM ATP. The assay started with loading 2.5 μL of JAK1, JAK2, JAK3, or TYK2 diluted in the kinase reaction buffer to wells, followed by addition of an equal volume of 4× compounds for 15-min incubation at room temperature for pre-treatment. The enzymatic reaction was initiated by addition of 5 μL of a mixture of the substrate and ATP prepared in the kinase reaction buffer. After one hour reaction, 10 μL mixture of EDTA (final 10 mM) and terbium-labeled anti-pSTAT1 (pTyr701) antibody (final 2 nM) (Invitrogen, Cat. No. PV4844) prepared in TR-FRET antibody dilution buffer (Invitrogen, Cat. No. PV3574) was added to stop the enzymatic reaction and produce TR-FRET signals. After 30 minutes of incubation at room temperature, the plate was read in Tecan Infinite F200 Pro with the following settings: Excitation 340 nm (30)/Emission1 495 nm (10)/Emission2 520 nm (25). The TR-FRET values were dimensionless numbers that were calculated as the ratio of the acceptor ([…]) signal to the donor (Terbium) signal. Percent of inhibition was calculated as (100%−percentage of compound-treated/DMSO vehicle-treated). The dose-response curves were generated and the IC50s were calculated by nonlinear sigmoid curve fitting using GraphPad Prism.
(§4) In Table 1, A represents a value no greater than 500 nM, B represents a value greater than 500 nM but no greater than 1 μM, C represents a value greater than 1 μM but no greater than 5 μM, and D represents a value greater than 5 μM. In Table 2, A′ represents a ratio of greater than 8, B′ represents a ratio of no greater than 8 but no less than 4, C′ represents a ratio of no greater than 4 but no less than 2, and D′ represents a ratio of no greater than 2. The selectivity is expressed as a ratio of the IC50 values of a compound against two kinases to be compared.

[2] = molecular target: human Janus kinase 2 (JAK2), recombinant catalytic domain (Homo sapiens (Human), UniProt O60674); assay: LanthaScreen TR-FRET enzymatic assay, JAK2; settings: for IC50: TR-FRET, 1 mM ATP, GFP-STAT1 substrate, read-out: Inhibitory Activity IC50 JAK2; for Selectivity JAK2/JAK1: ratio of IC50 against JAK2 over IC50 against JAK1
Chain of human Janus kinase 2 (JAK2), recombinant catalytic domain (O60674 808-1132): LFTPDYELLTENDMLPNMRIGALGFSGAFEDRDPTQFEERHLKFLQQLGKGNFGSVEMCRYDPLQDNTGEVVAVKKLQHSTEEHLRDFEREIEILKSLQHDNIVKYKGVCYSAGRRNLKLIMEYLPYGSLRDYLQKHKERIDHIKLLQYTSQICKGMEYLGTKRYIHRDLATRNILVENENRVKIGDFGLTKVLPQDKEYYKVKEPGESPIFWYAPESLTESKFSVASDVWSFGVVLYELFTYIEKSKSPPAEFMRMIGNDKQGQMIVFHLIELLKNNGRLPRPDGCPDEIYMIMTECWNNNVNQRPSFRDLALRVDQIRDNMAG
Procedure: as §1, §2, §3, §4

[3] = molecular target: human Janus kinase 3 (JAK3), recombinant catalytic domain (Homo sapiens (Human), UniProt P52333); assay: LanthaScreen TR-FRET enzymatic assay, JAK3; settings: TR-FRET, 1 mM ATP, GFP-STAT1 substrate; read-out: Inhibitory Activity IC50 JAK3
Chain of human Janus kinase 3 (JAK3), recombinant catalytic domain (Homo sapiens (Human), UniProt P52333) (P52333 781-1124): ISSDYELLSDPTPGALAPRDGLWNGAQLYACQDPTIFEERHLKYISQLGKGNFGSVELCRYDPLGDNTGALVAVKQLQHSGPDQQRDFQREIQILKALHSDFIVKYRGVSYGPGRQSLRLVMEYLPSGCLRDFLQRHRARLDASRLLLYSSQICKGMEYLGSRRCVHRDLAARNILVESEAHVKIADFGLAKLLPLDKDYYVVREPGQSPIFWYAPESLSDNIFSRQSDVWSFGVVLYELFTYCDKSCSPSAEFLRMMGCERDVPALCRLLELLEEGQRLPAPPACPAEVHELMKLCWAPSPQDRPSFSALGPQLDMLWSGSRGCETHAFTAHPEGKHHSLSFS
Procedure: as §1, §2, §3, §4

[4] = test system: human Janus kinase 3 (JAK3), recombinant catalytic domain; assay: LanthaScreen TR-FRET enzymatic assay, JAK3; settings: ratio of IC50 against JAK3 over IC50 against JAK1
Procedure: as §1, §2, §3, §4

[5] = molecular target: human tyrosine kinase 2 (TYK2), recombinant catalytic domain (Homo sapiens (Human), UniProt P29597); assay: LanthaScreen TR-FRET enzymatic assay, TYK2; settings: TR-FRET, 1 mM ATP, GFP-STAT1 substrate; read-out: Inhibitory Activity IC50 TYK2
Chain of human tyrosine kinase 2 (TYK2), recombinant catalytic domain (Homo sapiens (Human), UniProt P29597) (P29597 833-1187): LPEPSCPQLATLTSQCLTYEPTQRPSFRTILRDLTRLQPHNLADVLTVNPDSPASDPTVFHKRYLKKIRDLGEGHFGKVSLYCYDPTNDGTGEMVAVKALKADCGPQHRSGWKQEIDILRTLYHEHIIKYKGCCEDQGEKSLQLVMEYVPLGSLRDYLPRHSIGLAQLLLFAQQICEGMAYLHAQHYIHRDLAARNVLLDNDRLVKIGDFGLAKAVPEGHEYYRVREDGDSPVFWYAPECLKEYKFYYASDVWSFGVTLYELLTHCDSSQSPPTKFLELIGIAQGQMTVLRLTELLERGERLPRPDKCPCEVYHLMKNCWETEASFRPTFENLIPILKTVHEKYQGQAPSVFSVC
Procedure: as §1, §2, §3, §4

[6] = test system: human tyrosine kinase 2 (TYK2), recombinant catalytic domain; assay: LanthaScreen TR-FRET enzymatic assay, TYK2; settings: ratio of IC50 against TYK2 over IC50 against JAK1
Procedure: as §1, §2, §3, §4

IC50 [1] | IC50 [2] | IC50 [3] | IC50 [5] | SMILES | Selectivity JAK2/JAK1 [2] | Selectivity JAK3/JAK1 [4] | Selectivity TYK2/JAK1 [6]
≤ 0.5 µM | > 5 µM | > 5 µM | > 5 µM | N#CCc1ccc(-c2cccc3nc(NC(=O)C4CC4)cn23)c(F)c1 [Compound 16] | A′ (A′ represents a ratio of greater than 8) | A′ (A′ represents a ratio of greater than 8) | A′ (A′ represents a ratio of greater than 8)
> 5 µM | > 5 µM | > 5 µM | > 5 µM | Nc1cn2c(-c3ccc(CN4CCS(=O)(=O)CC4)cc3)cccc2n1 [Compound 19] | A′ (A′ represents a ratio of greater than 8) | D′ (D′ represents a ratio of no greater than 2) | C′ (C′ represents a ratio of no greater than 4 but no less than 2)
> 5 µM | > 5 µM | > 5 µM | > 5 µM | N#CCc1ccc(-c2cccc3nc(N)cn23)c(F)c1 [Compound 21] | A′ (A′ represents a ratio of greater than 8) | A′ (A′ represents a ratio of greater than 8) | C′ (C′ represents a ratio of no greater than 4 but no less than 2)
– | – | > 5 µM | – | N#CC1(c2ccc(-c3cccc4nc(NC(=O)C5CC5)cn34)cc2)CC1 [Compound 22] | A′ (A′ represents a ratio of greater than 8) | – | –
0.5 to 1 µM | > 5 µM | > 5 µM | > 5 µM | CC1(C)CN(C(=O)c2ccc(-c3cccc4nc(NC(=O)C5CC5)cn34)c(F)c2)C1 [Compound 23] | A′ (A′ represents a ratio of greater than 8) | A′ (A′ represents a ratio of greater than 8) | A′ (A′ represents a ratio of greater than 8)
> 5 µM | > 5 µM | > 5 µM | > 5 µM | O=C(Nc1cn2c(-c3ccc(CN4CCS(=O)(=O)CC4)cc3)c(Cl)ccc2n1)C1CC1 [Compound 34] | – | – | –
> 5 µM | > 5 µM | > 5 µM | > 5 µM | Cc1ccc(-c2ccc(CN3CCS(=O)(=O)CC3)cc2)n2cc(NC(=O)C3CC3)nc12 [Compound 35] | – | – | –

Second part, the compound before the results:

SMILES | IC50 [1] | IC50 [2] | IC50 [3] | IC50 [5] | Selectivity JAK2/JAK1 [2] | Selectivity JAK3/JAK1 [4] | Selectivity TYK2/JAK1 [6]
O=C(Nc1cn2c(-c3ccc(CN4CCS(=O)(=O)CC4)cc3)cccc2n1)C1CCC1 [Compound 3] | 1 to 5 µM | > 5 µM | > 5 µM | > 5 µM | A′ (A′ represents a ratio of greater than 8) | A′ (A′ represents a ratio of greater than 8) | A′ (A′ represents a ratio of greater than 8)
O=C(Nc1cn2c(-c3ccc(CN4CCOCC4)cc3)cccc2n1)C1CC1 [Compound 4] | 0.5 to 1 µM | > 5 µM | > 5 µM | > 5 µM | A′ (A′ represents a ratio of greater than 8) | A′ (A′ represents a ratio of greater than 8) | A′ (A′ represents a ratio of greater than 8)
CN1CCN(Cc2ccc(-c3cccc4nc(NC(=O)C5CC5)cn34)cc2)CC1 [Compound 5] | > 5 µM | > 5 µM | > 5 µM | > 5 µM | A′ (A′ represents a ratio of greater than 8) | A′ (A′ represents a ratio of greater than 8) | A′ (A′ represents a ratio of greater than 8)
O=C(Nc1cn2c(-c3ccc(CN4CCCCC4)cc3)cccc2n1)C1CC1 [Compound 6] | 1 to 5 µM | > 5 µM | > 5 µM | > 5 µM | A′ (A′ represents a ratio of greater than 8) | A′ (A′ represents a ratio of greater than 8) | A′ (A′ represents a ratio of greater than 8)
N#CC1CCN(Cc2ccc(-c3cccc4nc(NC(=O)C5CC5)cn34)cc2)CC1 [Compound 7] | 0.5 to 1 µM | > 5 µM | > 5 µM | > 5 µM | A′ (A′ represents a ratio of greater than 8) | A′ (A′ represents a ratio of greater than 8) | A′ (A′ represents a ratio of greater than 8)
O=C(Nc1cn2c(-c3ccc(CN4CC[C@H](O)C4)cc3)cccc2n1)C1CC1 [Compound 8] | 0.5 to 1 µM | > 5 µM | > 5 µM | > 5 µM | A′ (A′ represents a ratio of greater than 8) | A′ (A′ represents a ratio of greater than 8) | A′ (A′ represents a ratio of greater than 8)
O=C(Nc1cn2c(-c3ccc(CN4CC[C@@H](O)C4)cc3)cccc2n1)C1CC1 [Compound 9] | 1 to 5 µM | > 5 µM | > 5 µM | > 5 µM | A′ (A′ represents a ratio of greater than 8) | A′ (A′ represents a ratio of greater than 8) | A′ (A′ represents a ratio of greater than 8)
COc1ccc(-c2cccc3nc(NC(=O)C4CC4)cn23)cc1 [Compound 10] | 1 to 5 µM | > 5 µM | > 5 µM | > 5 µM | A′ (A′ represents a ratio of greater than 8) | A′ (A′ represents a ratio of greater than 8) | A′ (A′ represents a ratio of greater than 8)
N#CCc1ccc(-c2cccc3nc(NC(=O)C4CC4)cn23)cc1 [Compound 11] | ≤ 0.5 µM | > 5 µM | > 5 µM | > 5 µM | A′ (A′ represents a ratio of greater than 8) | A′ (A′ represents a ratio of greater than 8) | A′ (A′ represents a ratio of greater than 8)
Cc1cc(CN2CCS(=O)(=O)CC2)ccc1-c1cccc2nc(NC(=O)C3CC3)cn12 [Compound 12] | 1 to 5 µM | > 5 µM | > 5 µM | > 5 µM | A′ (A′ represents a ratio of greater than 8) | A′ (A′ represents a ratio of greater than 8) | A′ (A′ represents a ratio of greater than 8)
O=C(Nc1cn2c(-c3ccc(C(=O)N4CCS(=O)(=O)CC4)cc3)cccc2n1)C1CC1 [Compound 13, N-(5-(4-(1,1-Dioxo-1-thiomorpholine-4-carbonyl)phenyl)imidazo[1,2-a]pyridin-2-yl)cyclopropane Carboxamide] | 0.5 to 1 µM | > 5 µM | > 5 µM | > 5 µM | A′ (A′ represents a ratio of greater than 8) | A′ (A′ represents a ratio of greater than 8) | A′ (A′ represents a ratio of greater than 8)
